Source: US7511144B2, “Reverse hydroxamic acid derivatives” (Kaken Pharmaceutical Co., Ltd., priority 2001, dated 2009)

Experiments:
Assay type in all cases: biochemical
TACE = biological target: T1, TACE (Homo sapiens, UniProt P78536); test: TACE inhibition experiment (in vitro)
T1 construct: made in house; host or cells: mammalian cells or insect cells

Human MMP1 = biological target: T2, Human MMP1 (Homo sapiens, UniProt P03956); test: MMP1 inhibition experiment; settings: read-out: IC50 value MMP-1
T2 construct: purchased Calbiochem 444208
T2 sequence (P03956 100-469): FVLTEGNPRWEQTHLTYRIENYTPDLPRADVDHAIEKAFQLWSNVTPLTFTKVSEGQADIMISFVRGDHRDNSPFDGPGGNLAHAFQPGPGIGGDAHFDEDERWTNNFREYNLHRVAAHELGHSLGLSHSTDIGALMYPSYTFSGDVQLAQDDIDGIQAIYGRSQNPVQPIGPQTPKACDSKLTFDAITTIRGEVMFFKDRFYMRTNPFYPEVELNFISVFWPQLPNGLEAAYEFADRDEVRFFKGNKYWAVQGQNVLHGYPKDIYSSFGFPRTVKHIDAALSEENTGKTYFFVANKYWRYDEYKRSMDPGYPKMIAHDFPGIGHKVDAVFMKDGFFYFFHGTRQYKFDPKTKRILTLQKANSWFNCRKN
Experimental: (§1) The methods of inhibition experiments carried out for various MMPs are described below.
This enzyme solution in amount of 10 μL was diluted to 90 μL with the assay buffer A, which was added to 90 μL of 20 μM fluorescent substrate (Dnp-Pro-Cha(β-cyclohexylalanyl)-Gly-Cys(Me)-His-Ala-Lys(Nma)-NH2) prepared in the assay buffer B, followed by reaction for 5 hours at 37° C.

Human MMP17 = biological target: T3, Human MMP17 (Homo sapiens, UniProt Q9ULZ9); test: MMP17 inhibition test; settings: concentration required for 50% inhibition of enzyme activity; read-out: IC50 value MMP-17
T3 construct: purchased Calbiochem 475940
T3 sequence (Q9ULZ9 126-300 limits assumed): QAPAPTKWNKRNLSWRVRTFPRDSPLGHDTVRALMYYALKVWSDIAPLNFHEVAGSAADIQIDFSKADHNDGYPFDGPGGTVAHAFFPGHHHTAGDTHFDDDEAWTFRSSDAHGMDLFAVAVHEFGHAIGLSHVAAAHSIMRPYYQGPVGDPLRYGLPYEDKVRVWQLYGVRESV

Human MMP2 = biological target: T4, Human MMP2 (Homo sapiens, UniProt P08253); test: MMP2 inhibition experiment; settings: concentration required for 50% inhibition of enzyme activity; read-out: IC50 value MMP-2
T4 construct: purchased Calbiochem 444213
T4 sequence (P08253 110-660): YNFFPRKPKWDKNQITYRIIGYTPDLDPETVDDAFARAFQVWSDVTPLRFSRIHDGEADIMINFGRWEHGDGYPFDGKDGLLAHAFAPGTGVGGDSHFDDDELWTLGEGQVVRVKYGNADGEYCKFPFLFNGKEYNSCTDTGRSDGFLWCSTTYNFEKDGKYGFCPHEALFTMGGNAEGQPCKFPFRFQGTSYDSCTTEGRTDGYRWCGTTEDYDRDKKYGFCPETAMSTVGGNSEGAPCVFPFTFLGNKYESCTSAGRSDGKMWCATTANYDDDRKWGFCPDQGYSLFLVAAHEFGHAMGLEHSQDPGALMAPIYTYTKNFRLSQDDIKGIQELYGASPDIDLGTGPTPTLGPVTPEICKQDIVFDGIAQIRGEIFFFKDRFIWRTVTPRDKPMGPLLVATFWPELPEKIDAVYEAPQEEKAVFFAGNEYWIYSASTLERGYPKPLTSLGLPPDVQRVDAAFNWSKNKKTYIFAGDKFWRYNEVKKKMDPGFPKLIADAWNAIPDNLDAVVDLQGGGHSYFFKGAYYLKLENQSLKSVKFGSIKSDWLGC
Experimental: This enzyme solution in amount of 10 μL was diluted to 90 μL with the assay buffer A, which was added to 90 μL of 20 μM fluorescent substrate (MOCAc((7-methoxycoumarin-4-yl)acetyl)-Pro-Leu-Gly-Leu-A2pr(Dnp)-Ala-Arg-NH2, Peptide Institute, Inc., #3163-v) prepared in the assay buffer B, followed by reaction for 5 hours at 37° C.

Human MMP9 = biological target: T5, Human MMP9 (Homo sapiens, UniProt P14780); test: MMP9 inhibition experiment; settings: read-out: IC50 value MMP-9
T5 construct: purchased Calbiochem 444231
Experimental: as §1
This enzyme solution in amount of 1 μL was diluted to 90 μL with the assay buffer A, which was added to 90 μL of 20 μM fluorescent substrate (Dnp-Pro-Cha-Gly-Cys(Me)-His-Ala-Lys(Nma)-NH2) prepared in the assay buffer B, followed by reaction for 4 hours at 37° C.

Human MMP14 = biological target: T6, Human MMP14 (Homo sapiens, UniProt P50281); test: MMP14 inhibition experiment; settings: concentration required for 50% inhibition of enzyme activity; read-out: IC50 value MMP-14
T6 construct: purchased Biogenesis or Calbiochem 5980-1461 or 475935
How it was run: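 Fluorescence assay: substrate Dnp-Pro-Cha-Gly-Cys(Me)-His-Ala-Lys(Nma)-NH2 (20 μM before equal-volume mixing) incubated at 37° C for 5 hours with 4 ng human MMP14.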

Human MMP3 = biological target: T7, Human MMP3 (Homo sapiens, UniProt P08254); test: MMP3 inhibition experiment; settings: concentration required for 50% inhibition of enzyme activity; read-out: IC50 value MMP-3
T7 construct: purchased Calbiochem 444217
How it was run: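 Fluorescence-quenched substrate NFF-3 (MOCAc/Dnp peptide, 20 μM as prepared) cleaved by 5 ng human MMP3 over 5 hours at 37° C, with inhibition measured from substrate fluorescence.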

Human MMP13 = biological target: T8, Human MMP13 (Homo sapiens, UniProt P45452); test: MMP13 inhibition experiment; settings: concentration required for 50% inhibition of enzyme activity; read-out: IC50 value MMP-13
T8 construct: purchased Chemicon CC068
Experimental: Human MMP13 (Chemicon #CC068) in amount of 90 μL (200 ng) was activated by mixing with 10 μL of 10 mM APMA, followed by reaction for 1 hour at 37° C. This enzyme solution in amount of 0.6 μL was diluted to 90 μL with the assay buffer A, which was added to 90 μL of 20 μM fluorescent substrate (Dnp-Pro-Cha-Gly-Cys(Me)-His-Ala-Lys(Nma)-NH2) prepared in the assay buffer B, followed by reaction for 4 hours at 37° C.

Human MMP8 = biological target: T9, Human MMP8 (Homo sapiens, UniProt P22894); test: MMP8 inhibition experiment; settings: concentration required for 50% inhibition of enzyme activity; read-out: IC50 value MMP-8
T9 construct: purchased Calbiochem 444229
How it was run: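 Human MMP8 activated with APMA for 1 h at 37° C, then incubated with fluorogenic peptide MOCAc-Pro-Leu-Gly-Leu-A2pr(Dnp)-Ala-Arg-NH2 (20 μM stock) for 5 hours at 37° C. Fluorescent substrate cleavage serves as read-out.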

T9 sequence (P22894 101-467): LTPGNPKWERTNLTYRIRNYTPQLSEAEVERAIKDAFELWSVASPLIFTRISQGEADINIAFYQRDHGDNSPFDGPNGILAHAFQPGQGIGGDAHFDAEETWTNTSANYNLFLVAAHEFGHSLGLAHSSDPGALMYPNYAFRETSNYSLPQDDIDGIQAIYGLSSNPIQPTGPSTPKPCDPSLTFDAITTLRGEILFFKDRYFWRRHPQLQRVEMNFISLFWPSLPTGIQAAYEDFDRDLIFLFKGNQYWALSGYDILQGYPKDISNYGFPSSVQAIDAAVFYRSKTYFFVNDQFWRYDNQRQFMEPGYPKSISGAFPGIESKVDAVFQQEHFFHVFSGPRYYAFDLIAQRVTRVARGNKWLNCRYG
T1 sequence (P78536 215-824): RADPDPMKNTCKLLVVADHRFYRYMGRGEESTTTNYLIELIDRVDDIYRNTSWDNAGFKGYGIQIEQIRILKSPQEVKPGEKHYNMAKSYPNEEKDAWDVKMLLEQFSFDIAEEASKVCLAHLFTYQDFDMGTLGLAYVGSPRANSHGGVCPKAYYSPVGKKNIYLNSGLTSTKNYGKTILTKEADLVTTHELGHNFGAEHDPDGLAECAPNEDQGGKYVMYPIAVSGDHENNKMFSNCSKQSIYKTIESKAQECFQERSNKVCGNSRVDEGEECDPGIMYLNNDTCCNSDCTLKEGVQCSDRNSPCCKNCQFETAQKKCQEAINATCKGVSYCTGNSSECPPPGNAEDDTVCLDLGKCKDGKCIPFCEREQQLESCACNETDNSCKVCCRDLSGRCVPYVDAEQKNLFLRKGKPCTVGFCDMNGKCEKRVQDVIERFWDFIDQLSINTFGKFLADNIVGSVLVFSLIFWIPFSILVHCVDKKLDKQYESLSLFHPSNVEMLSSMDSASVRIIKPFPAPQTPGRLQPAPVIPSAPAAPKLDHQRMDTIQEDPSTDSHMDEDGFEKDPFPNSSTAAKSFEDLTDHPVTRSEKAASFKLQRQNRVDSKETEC
T7 sequence (P08254 100-272 limits assumed): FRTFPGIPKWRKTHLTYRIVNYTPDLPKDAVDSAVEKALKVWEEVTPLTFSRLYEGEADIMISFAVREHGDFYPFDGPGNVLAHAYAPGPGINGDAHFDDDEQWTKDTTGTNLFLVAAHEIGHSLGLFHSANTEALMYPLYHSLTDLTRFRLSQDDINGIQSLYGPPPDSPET
T5 sequence (P14780 107-707 limits assumed): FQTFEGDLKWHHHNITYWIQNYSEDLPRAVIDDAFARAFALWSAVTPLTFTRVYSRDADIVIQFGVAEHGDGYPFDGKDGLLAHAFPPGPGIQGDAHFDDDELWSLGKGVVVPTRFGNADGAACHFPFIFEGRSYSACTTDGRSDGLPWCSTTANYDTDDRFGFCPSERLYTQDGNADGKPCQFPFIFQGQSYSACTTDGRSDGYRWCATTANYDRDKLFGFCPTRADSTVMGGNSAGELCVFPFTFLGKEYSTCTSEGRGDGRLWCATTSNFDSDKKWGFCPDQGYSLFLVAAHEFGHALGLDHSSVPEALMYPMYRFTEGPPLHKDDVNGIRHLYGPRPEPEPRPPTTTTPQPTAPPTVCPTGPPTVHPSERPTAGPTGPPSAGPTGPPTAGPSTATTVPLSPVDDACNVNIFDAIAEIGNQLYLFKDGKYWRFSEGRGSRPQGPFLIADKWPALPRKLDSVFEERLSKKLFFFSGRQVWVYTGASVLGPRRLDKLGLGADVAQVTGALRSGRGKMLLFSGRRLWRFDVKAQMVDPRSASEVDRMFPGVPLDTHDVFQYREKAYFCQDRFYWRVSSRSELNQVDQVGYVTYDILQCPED

Row | SMILES | IC50 (TACE) | IC50 (Human MMP1) | IC50 (Human MMP17) | IC50 (Human MMP2) | IC50 (Human MMP9) | IC50 (Human MMP14) | IC50 (Human MMP3) | IC50 (Human MMP13) | IC50 (Human MMP8)
1 | CC(=O)N1CCC(C(CS(=O)(=O)c2ccc(OCc3cc(C)nc4ccccc34)cc2)N(O)C=O)CC1 (stereo not drawn) [Example I-73] | 0.014 µM | > 100 µM | 0.66 µM | 26 µM | > 100 µM | > 100 µM | 1.7 µM | 50 µM | 18 µM
2 | Cc1cc(COc2ccc(S(=O)(=O)CC(C3CCN(C(=O)OC(C)(C)C)CC3)N(O)C=O)cc2)c2ccccc2n1 (stereo not drawn) [Example I-68] | 0.023 µM | 80 µM | 0.22 µM | 1.5 µM | 50 µM | 40 µM | 0.5 µM | 0.53 µM | 8 µM
3 | Cc1ccc2nc(C)cc(COc3ccc(S(=O)(=O)CC(C=C4CCC(=NO)CC4)N(O)C=O)cc3)c2c1 (stereo not drawn) [Example I-75] | 0.0041 µM | 65 µM | 11 µM | 50 µM | 35 µM | 40 µM | 5.5 µM | 22 µM | 90 µM
4 | Cc1cc(COc2ccc(S(=O)(=O)CC(C=C3CCN(C(=O)c4ccccc4)CC3)N(O)C=O)cc2)c2ccccc2n1 (stereo not drawn) [Example I-21] | 0.0022 µM | 35 µM | 0.045 µM | 0.63 µM | 9 µM | 3.8 µM | 0.05 µM | 0.6 µM | 2.65 µM
5 | Cc1cc(COc2ccc(S(=O)(=O)CC(N(O)C=O)C3(C)CCC(O)CC3)cc2)c2ccccc2n1 (stereo not drawn) [Example I-137] | 0.024 µM | > 100 µM | 0.9 µM | > 100 µM | > 100 µM | > 100 µM | 3.2 µM | 50 µM | 23 µM
6 | Cc1cc(COc2ccc(S(=O)(=O)CC(C=C3CCN(C(=O)OC(C)(C)C)CC3)N(O)C=O)cc2)c2ccccc2n1 (stereo not drawn) [Example I-18] | 0.004 µM | 65 µM | 0.6 µM | 3.3 µM | 10 µM | 20 µM | 0.65 µM | 3.5 µM | 24.5 µM
7 | Cc1cccc(CCC(CS(=O)(=O)c2ccc(OCc3cc(C)nc4ccccc34)cc2)N(O)C=O)c1 (stereo not drawn) [Example I-39] | 0.21 µM | 73 µM | 25 µM | 30 µM | 36 µM | 43 µM | 24 µM | 26 µM | > 100 µM
8 | COCc1cc(COc2ccc(S(=O)(=O)CC(C=C3CCC4(CC3)OCCO4)N(O)C=O)cc2)cc(C)n1 (stereo not drawn) [Example I-118] | 0.23 µM | > 100 µM | 40 µM | 20 µM | > 100 µM | > 100 µM | 30 µM | 31 µM | 32 µM
9 | Cc1cccc(C(CS(=O)(=O)c2ccc(OCc3cc(C)nc4ccccc34)cc2)N(O)C=O)c1 (stereo not drawn) [Example I-22] | 0.0042 µM | 60 µM | 3.5 µM | 40 µM | 53 µM | 42 µM | 7.3 µM | 21 µM | 59.5 µM
